Source: paper PMC9031908 (RSC Advances, 2021)
Read-outs that look alike come from different tables or passages of the source.

Assays:
D2 receptor [1] = biological target: D2 receptor (Rattus norvegicus, UniProt P61169); assay: biochemical; assay type: binding
5-HT2A receptor [2] = biological target: 5-HT2A receptor (Rattus norvegicus, UniProt P14842); assay: biochemical; assay type: binding
H3 receptor = H3 receptor (Rattus norvegicus, UniProt Q9QYN8); assay type: binding
5-HT1A receptor [3] = biological target: T1, 5-HT1A receptor (Rattus norvegicus, UniProt P19327); assay: biochemical; assay type: binding
T1 sequence (P19327 1-422): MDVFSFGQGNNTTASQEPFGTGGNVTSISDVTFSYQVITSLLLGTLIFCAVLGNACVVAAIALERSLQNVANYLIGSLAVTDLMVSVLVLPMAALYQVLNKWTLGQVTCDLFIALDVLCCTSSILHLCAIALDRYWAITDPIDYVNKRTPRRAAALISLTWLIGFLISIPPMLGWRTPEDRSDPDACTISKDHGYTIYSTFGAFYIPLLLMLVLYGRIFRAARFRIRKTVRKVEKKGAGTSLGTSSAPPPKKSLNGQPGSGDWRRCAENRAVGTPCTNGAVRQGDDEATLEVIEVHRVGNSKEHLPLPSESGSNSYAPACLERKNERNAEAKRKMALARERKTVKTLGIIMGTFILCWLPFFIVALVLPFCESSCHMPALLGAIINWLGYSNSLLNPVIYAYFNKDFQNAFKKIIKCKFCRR

5-HT6 receptor [4] = biological target: T2, 5-HT6 receptor (Homo sapiens, UniProt P50406); assay: biochemical; assay type: binding
5-HT1A receptor [5] = biological target: T3, 5-HT1A receptor (Homo sapiens, UniProt P08908); assay: cell-based
T3 sequence (P08908 1-422): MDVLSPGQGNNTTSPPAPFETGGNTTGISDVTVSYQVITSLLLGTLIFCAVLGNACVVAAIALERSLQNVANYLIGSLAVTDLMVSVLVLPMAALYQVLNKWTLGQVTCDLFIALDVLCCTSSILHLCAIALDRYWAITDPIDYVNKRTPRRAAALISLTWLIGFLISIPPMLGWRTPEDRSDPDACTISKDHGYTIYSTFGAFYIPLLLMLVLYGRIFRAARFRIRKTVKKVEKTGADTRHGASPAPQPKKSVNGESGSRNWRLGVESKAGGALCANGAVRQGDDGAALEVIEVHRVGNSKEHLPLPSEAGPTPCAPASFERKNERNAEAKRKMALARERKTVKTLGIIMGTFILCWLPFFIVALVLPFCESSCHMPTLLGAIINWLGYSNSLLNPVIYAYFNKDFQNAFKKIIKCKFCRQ

α1 receptor = conditions: read-out: Receptor affinity Ki ± SEM, α1; three experiments, mean ± SEM
hH3R = hH3R (Homo sapiens, UniProt Q9Y5N1); assay: H3 functional activity
mice [6] = assay: Apomorphine-induced climbing; assay type: in vivo; conditions: po
5-HT6 receptor [7] = biological target: T2, 5-HT6 receptor; assay: cell-based
5-HT2A receptor [8] = biological target: 5-HT2A receptor (Homo sapiens, UniProt P28223); assay: 5-HT2A functional activity; assay type: cell-based
rats [9] = conditions: oral
mice [10] = assay: MK-801-induced hyperactivity; conditions: po
mice [11] = assay: Weight gain after 28 days of administration; assay type: in vivo; conditions: oral
5-HT2C receptor = biological target: T4, 5-HT2C receptor (Rattus norvegicus, UniProt P08909); assay: biochemical
T4 sequence (P08909 33-460): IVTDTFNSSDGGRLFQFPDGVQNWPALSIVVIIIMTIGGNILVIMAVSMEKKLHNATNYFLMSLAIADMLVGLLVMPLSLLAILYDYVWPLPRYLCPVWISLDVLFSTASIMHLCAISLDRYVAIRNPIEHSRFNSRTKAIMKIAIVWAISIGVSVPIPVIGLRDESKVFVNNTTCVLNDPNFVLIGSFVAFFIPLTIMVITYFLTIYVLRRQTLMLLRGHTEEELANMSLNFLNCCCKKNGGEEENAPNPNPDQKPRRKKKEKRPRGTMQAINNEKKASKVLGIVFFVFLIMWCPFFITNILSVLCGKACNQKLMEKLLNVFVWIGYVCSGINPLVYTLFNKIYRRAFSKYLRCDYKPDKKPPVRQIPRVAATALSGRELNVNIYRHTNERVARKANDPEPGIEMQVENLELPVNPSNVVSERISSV

D2 receptor [12] = biological target: D2 receptor (Homo sapiens, UniProt P14416); assay: cell-based
mice [13] = assay: Catalepsy test; assay type: in vivo; conditions: po
H1 receptor = H1 receptor (Cavia porcellus, UniProt P31389); assay: biochemical
mice [14] = assay: Serum prolactin after 28 days of administration; assay type: in vivo; conditions: oral
mice [15] = assay: Acute toxicity; conditions: oral, 24 h
rats [16] = assay: Conditioned avoidance response; assay type: in vivo; conditions: po

Chain of 5-HT2A receptor (Rattus norvegicus, UniProt P14842) (P14842 whole entry): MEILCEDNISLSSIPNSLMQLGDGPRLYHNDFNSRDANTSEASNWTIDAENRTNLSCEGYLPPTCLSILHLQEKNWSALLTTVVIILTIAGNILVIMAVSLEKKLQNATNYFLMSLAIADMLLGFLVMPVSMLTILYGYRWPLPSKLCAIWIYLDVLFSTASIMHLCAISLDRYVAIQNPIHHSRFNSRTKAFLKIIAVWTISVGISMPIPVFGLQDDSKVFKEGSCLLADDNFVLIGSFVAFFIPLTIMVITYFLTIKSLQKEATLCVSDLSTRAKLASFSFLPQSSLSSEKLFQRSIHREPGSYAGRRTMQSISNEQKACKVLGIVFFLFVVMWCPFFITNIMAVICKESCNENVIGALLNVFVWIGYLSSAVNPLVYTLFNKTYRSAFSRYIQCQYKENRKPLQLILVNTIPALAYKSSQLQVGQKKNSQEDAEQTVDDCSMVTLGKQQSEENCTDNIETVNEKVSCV
Chain of H3 receptor (Q9QYN8 whole entry): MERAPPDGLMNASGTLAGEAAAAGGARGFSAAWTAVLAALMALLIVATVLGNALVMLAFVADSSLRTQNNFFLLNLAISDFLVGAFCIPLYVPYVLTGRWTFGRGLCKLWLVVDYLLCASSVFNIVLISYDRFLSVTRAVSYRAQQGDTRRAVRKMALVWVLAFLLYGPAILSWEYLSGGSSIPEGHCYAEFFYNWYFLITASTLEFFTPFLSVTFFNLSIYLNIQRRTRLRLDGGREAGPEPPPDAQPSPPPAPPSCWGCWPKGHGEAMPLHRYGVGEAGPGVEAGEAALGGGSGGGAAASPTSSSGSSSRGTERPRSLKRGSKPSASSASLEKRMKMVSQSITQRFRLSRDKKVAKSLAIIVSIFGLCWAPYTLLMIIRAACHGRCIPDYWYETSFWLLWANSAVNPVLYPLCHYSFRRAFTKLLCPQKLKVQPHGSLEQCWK
Chain of D2 receptor (Rattus norvegicus, UniProt P61169) (P61169 whole entry): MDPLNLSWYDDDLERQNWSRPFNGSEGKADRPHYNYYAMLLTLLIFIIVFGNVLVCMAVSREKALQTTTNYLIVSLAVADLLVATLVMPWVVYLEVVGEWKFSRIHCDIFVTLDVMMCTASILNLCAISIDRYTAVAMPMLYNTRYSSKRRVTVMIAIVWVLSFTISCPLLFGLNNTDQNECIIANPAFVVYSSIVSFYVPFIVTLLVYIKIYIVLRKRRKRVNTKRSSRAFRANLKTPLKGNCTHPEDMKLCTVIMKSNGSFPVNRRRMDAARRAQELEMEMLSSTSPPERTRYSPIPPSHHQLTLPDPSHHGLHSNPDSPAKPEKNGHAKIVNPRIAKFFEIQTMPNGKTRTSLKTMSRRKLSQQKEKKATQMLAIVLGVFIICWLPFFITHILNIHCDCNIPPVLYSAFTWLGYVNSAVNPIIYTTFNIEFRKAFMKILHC
T2 sequence (P50406 whole entry): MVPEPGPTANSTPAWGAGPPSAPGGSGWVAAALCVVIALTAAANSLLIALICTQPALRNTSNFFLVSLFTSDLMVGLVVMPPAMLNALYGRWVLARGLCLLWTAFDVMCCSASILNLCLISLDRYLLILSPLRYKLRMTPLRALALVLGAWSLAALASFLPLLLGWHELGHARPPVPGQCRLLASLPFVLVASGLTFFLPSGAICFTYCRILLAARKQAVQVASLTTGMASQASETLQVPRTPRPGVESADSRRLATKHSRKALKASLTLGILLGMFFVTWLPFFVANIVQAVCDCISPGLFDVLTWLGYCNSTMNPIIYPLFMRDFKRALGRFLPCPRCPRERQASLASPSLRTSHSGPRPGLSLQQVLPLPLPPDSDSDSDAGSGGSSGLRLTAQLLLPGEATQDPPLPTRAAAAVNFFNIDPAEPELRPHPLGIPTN
Chain of 5-HT2A receptor (Homo sapiens, UniProt P28223) (P28223 whole entry): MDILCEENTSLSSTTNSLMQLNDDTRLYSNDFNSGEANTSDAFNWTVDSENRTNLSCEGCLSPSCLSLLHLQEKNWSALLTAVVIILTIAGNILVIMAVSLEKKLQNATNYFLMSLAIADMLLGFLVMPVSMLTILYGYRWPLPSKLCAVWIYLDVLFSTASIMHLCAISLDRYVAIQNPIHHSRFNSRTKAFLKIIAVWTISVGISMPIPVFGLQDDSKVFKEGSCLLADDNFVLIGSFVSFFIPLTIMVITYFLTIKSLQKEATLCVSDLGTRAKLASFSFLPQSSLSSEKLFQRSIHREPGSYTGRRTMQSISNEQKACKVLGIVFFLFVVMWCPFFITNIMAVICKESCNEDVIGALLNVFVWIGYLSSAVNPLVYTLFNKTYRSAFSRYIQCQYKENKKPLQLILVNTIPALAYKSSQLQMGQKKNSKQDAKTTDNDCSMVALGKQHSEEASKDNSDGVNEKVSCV
Chain of H1 receptor (P31389 whole entry): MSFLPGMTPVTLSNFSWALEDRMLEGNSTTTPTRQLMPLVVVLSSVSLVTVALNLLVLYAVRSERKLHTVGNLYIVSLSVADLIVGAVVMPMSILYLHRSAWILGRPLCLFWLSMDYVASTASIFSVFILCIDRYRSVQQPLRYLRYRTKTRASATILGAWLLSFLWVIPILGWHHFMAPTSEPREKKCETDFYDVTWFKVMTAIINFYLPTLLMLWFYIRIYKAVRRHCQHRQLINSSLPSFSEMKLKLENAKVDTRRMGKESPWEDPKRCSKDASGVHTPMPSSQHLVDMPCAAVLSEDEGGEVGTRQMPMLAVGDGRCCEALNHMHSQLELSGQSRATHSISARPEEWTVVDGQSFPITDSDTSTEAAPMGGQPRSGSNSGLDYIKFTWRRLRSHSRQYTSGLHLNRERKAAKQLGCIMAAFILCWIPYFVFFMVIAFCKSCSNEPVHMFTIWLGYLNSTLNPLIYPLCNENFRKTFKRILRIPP
Chain of D2 receptor (Homo sapiens, UniProt P14416) (P14416 whole entry): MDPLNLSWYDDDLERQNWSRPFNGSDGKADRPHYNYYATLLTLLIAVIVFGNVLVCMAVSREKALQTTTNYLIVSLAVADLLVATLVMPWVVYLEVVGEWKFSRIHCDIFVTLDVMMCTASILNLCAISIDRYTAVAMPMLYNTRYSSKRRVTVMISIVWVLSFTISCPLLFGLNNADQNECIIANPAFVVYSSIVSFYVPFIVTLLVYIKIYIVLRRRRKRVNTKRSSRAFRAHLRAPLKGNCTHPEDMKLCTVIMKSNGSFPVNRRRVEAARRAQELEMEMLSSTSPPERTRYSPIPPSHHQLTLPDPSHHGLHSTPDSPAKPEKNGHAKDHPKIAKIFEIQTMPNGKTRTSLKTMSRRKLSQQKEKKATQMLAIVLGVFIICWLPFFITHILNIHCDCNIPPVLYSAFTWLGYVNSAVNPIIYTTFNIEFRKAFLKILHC
Chain of hH3R (Q9Y5N1 whole entry): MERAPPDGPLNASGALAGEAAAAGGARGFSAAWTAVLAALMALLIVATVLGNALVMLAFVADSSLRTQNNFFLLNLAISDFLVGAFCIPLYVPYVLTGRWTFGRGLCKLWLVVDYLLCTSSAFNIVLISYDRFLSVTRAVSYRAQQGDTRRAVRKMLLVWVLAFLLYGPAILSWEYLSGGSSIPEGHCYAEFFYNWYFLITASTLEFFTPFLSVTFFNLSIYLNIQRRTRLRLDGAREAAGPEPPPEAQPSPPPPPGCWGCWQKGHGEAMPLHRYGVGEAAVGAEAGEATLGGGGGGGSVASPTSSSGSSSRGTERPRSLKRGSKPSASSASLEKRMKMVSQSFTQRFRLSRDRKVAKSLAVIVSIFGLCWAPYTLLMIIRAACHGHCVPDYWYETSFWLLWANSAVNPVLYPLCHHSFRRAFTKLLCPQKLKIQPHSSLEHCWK

Row | Compound | Ki (D2 receptor [1]) [nM] | Ki (5-HT2A receptor [2]) [nM] | Ki (H3 receptor) [nM] | Ki (5-HT1A receptor [3]) [nM] | Ki (5-HT6 receptor [4]) [nM] | also measured
1 | Fc1cc(CN2CCCC2)ccc1OCCCN1CCN(c2cccc3sccc23)CC1 [Compound 3c] | 100 ± 7 | 259 ± 14 | 92.9 ± 3.6 | 155 ± 15.2 | 383 ± 34.6 | –
2 | Clc1cc(OCCCN2CCN(c3cccc4sccc34)CC2)ccc1CN1CCCC1 [Compound 3f] | 120 ± 15 | 268 ± 20.2 | 75.3 ± 8.5 | 185 ± 16.3 | 376 ± 58.3 | –
3 | c1cc(N2CCN(CCCOc3ccc(CN4CCOCC4)cc3)CC2)c2ccsc2c1 [Compound 3w] | 17.5 ± 1.9 | – | 12.1 ± 1.5 | 16.7 ± 1.8 | 336 ± 65.3 | IC50 (5-HT1A receptor [5]): 218 nM; Ki (α1 receptor): 406 ± 60.8 nM; IC50 (hH3R): 232 nM; APO: apomorphine-induced climbing ED50 (mice [6]): 0.28 mg/kg; IC50 (5-HT6 receptor [7]): 413 nM; IC50 (5-HT2A receptor [8]): 142 nM; novelty discrimination index (NDI) (rats [9]; 0.3 and 1.0 mg kg^−1): obvious increase; effect on total exploration time during the acquisition trial (rats [9]; 1.0–10.0 mg kg^−1): no obvious effect; difference in exploration times for novel and familiar objects, retention trial (rats [9]; low dose 0.1 mg kg^−1): no significant difference; MK-801: MK-801-induced hyperactivity ED50 (mice [10]): 0.17 mg/kg; weight gain (mice [11]): negligible weight gain; Ki (5-HT2C receptor): 572 ± 91.5 nM; IC50 (D2 receptor [12]): 11.6 nM; CAT: catalepsy ED50 (mice [13]): 27.5 mg/kg; Ki (H1 receptor): 820 ± 48.7 nM
4 | COc1cc(CN2CCCCC2)ccc1OCCCN1CCN(c2cccc3sccc23)CC1 [Compound 3p] | 144 ± 15 | 198 ± 16.9 | – | 229 ± 25.8 | 416 ± 81.3 | –
5 | Fc1cc(OCCCN2CCN(c3cccc4sccc34)CC2)ccc1CN1CCCC1 [Compound 3d] | 98.7 ± 6.8 | 262 ± 17.5 | 54.4 ± 2 | 144 ± 10.4 | 354 ± 65.8 | –
6 | Cc1nc2n(c(=O)c1CCN1CCC(c3noc4cc(F)ccc34)CC1)CCCC2 [Risperidone, risperidone] | – | – | – | – | – | serum prolactin levels (mice [14]): significant increase; LD50 (mice [15]): 82.0 mg/kg; APO: apomorphine-induced climbing ED50 (mice [6]): 0.05 mg/kg; CAR: conditioned avoidance response ED50 (rats [16]): 0.65 mg/kg; CAR: conditioned avoidance response ED50 (rats [16]; listed as risperidone): 2.1 mg/kg; MK-801: MK-801-induced hyperactivity ED50 (mice [10]): 0.02 mg/kg; weight gain (mice [11]): significant weight gain; CAT: catalepsy ED50 (mice [13]): 0.51 mg/kg; CAT: catalepsy ED50 (mice [13]; listed as risperidone): 1.15 mg/kg
7 | CCN(C)C(=O)Oc1cccc([C@H](C)N(C)C)c1 [rivastigmine, reference compound] | – | – | – | – | – | novelty discrimination index (NDI) (rats [9]; 0.1 and 0.3 mg kg^−1): obvious increase; exploration time for novel things vs vehicle, retention trial (rats [9]; 0.1 to 3.0 mg kg^−1): longer exploration
8 | c1cc(N2CCN(CCCOc3ccc(CN4CCCC4)cc3)CC2)c2ccsc2c1 [Compound 3i] | 91.1 ± 4.5 | 186 ± 20.1 | 53 ± 6.3 | 135 ± 10.5 | 384 ± 51.3 | –
9 | Cc1cc(CN2CCCCC2)ccc1OCCCN1CCN(c2cccc3sccc23)CC1 [Compound 3j] | 138 ± 30.1 | 324 ± 27.5 | 85 ± 9.8 | 305 ± 28.2 | 385 ± 51 | –
10 | COc1cc(CN2CCCC2)ccc1OCCCN1CCN(c2cccc3sccc23)CC1 [Compound 3g] | 99.5 ± 8.4 | 129 ± 15.1 | 62.5 ± 5 | 149 ± 11.7 | 462 ± 55.7 | –
11 | O=C(CCCN1CCC(O)(c2ccc(Cl)cc2)CC1)c1ccc(F)cc1 [Haloperidol, haloperidol] | – | – | – | – | – | LD50 (mice [15]): 21.0 mg/kg; APO: apomorphine-induced climbing ED50 (mice [6]): 0.09 mg/kg; MK-801: MK-801-induced hyperactivity ED50 (mice [10]): 0.11 mg/kg; CAT: catalepsy ED50 (mice [13]): 0.51 mg/kg
12 | Fc1cc(OCCCN2CCN(c3cccc4sccc34)CC2)ccc1CN1CCCCC1 [Compound 3m] | 110 ± 8.9 | 146 ± 11.5 | 81.5 ± 6.5 | 213 ± 24.3 | 365 ± 55.6 | –
13 | Fc1cc(CN2CCCCC2)ccc1OCCCN1CCN(c2cccc3sccc23)CC1 [Compound 3l] | 197 ± 15.5 | 175 ± 25.3 | 88.4 ± 10.1 | 285 ± 15.7 | 389 ± 63.2 | –
